Laboratory results as given in patent publication US20240400572A1, “COMPOUNDS AND METHODS FOR TREATING CANCERS THAT ARE MGMT DEFICIENT REGARDLESS OF MMR STATUS” (Yale University, priority 2021, published 2024).

Assays:
[1] = system: LN229 MGMT−/MMR− intracranial tumors; experiment: Anti-cancer activity in mice having tumors formed from LN-229 human brain glioblastoma cells; assay type: in vivo, mouse; conditions: 25 mg/kg PO for 5 days; compared with vehicle, TMZ, or KL50
Description: Mice bearing tumors formed from LN-229 human brain glioblastoma cells were prepared as follows: LN229 MGMT−/MMR− cells stably expressing firefly luciferase (lentivirus-plasmids from Cellomics Technology; PLV-10003) were injected intracranially into mice using a stereotactic injector. For this procedure, 1.5 million LN229 MGMT−/MMR− cells in 5 μl PBS were injected into the brain of the mice subjects, and then the mice were imaged weekly using the IVIS Spectrum In Vivo Imaging System (PerkinElmer) according to the manufacturer's protocol. Images were taken on a weekly basis and acquired 10 min post intraperitoneal injection with d-luciferin (150 mg/kg of animal mass). Tumors were allowed to grow to an average of 1.0×10^8 RLU before randomization of the mice.
Treatments using study compounds were administered PO (oral gavage), with 10% cyclodextrin vehicle control or study compound, according to the indicated treatment regimen. Animals were observed daily, with weekly tumor imaging and body weight measurements. Quantification of BLI flux (photons/sec) was made through the identification of a region of interest (ROI) for each tumor.
Study compounds were administered to mice at a dose of 25 mg/kg PO for 5 days; thereafter no further study compound was administered to the mice.
Statistical analysis of data was performed using GraphPad Prism software. Data was presented as mean±SEM. […]

[2] = Maximum tolerated dose study; assay type: in vivo
Description: Healthy mice were treated with escalating doses of KL-50 (4a) (0, 25, 50, 100, and 200 mg/kg×1 dose), and monitored over time for changes in both weights and hematologic profiles. […] As the main dose limiting systemic toxicity of TMZ (1a) is myelosuppression, we measured complete blood counts for all mice on day 0 before treatment and subsequently on day 7 after drug administration.

LN229 MGMT−/MMR− cells = experiment: Short-term cell viability assay; assay type: cell-based, human; conditions: Homo sapiens, LN-229
Description: Short-term Cell Viability Assay. Cells were seeded in 96-well plates at 1000 or 2000 cells/well and allowed to adhere at 23° C. for 60 min and then incubated overnight at 37° C. Cells were treated with indicated concentrations of compounds in triplicate for 4-6 days prior to fixation with 3.7% paraformaldehyde and nuclear staining with 1 μg/mL Hoechst 33342 dye. Cells were imaged on a Cytation 3 imaging reader (BioTek) and quantified using CellProfiler software.
Statistical analysis. Statistical analysis was performed using GraphPad Prism software. Data are presented as mean or median±SD or SEM as indicated. For in vitro short-term growth delay experiments, IC50 values were determined from the nonlinear regression equation, [inhibitor] vs normalized response with variable slope. […]
We synthesized the imidazotetrazine 4a (KL-50) and the triazene 4b (KL-85), as vehicles to deliver 2-fluoroethyl diazonium (4c), and a series of related agents to probe structure-activity relationships in tissue culture (FIG. Z1, D and F). […] We evaluated the cytotoxicity of our compounds in short-term cell viability assays against four isogenic LN229 glioblastoma cell lines engineered to be proficient or deficient in MGMT and/or MMR activity, using short hairpin RNAs (shRNAs) targeting MSH2 (referred to as MGMT+/−, MMR+/− cells hereafter; FIG. ZS2A). […]

[3] = system: PD20 cells, FANCD2−/− or +FANCD2; experiment: Short-term cell viability assay in FANCD2 model; assay type: cell-based, human; conditions: PD20 FANCD2−/− versus +FANCD2
Description: FIGS. Z4A-Z4I. KL-50 (4a) activates DNA damage response pathways and cycle arrest in MGMT− cells, independent of MMR, and induces sensitivity in cells deficient in ICL or HR repair. (FIGS. Z4A, Z4B, and Z4C) Phospho-SER139-H2AX (γH2AX) (A), 53BP1 (FIG. Z4B), and phospo-SER33-RPA2 (pRPA) (FIG. Z4C) foci formation quantified by % cells with 10 foci in LN229 MGMT+/−, MMR+/− cells treated with 0.1% DMSO control, 20 μM KL-50 (4a), or 20 μM TMZ (1a) for 48 h. Columns, mean; error bars, SD; n≥5 technical replicates. Additional time course data is presented in FIG. ZS6B to D. (FIG. Z4D) Representative foci images of data in (FIG. Z4A) to (FIG. Z4C). (FIG. Z4E) Percentage of cells in G1, S, and G2 cell cycle phases after treatment as in (A) to (C), measured using integrated nuclear (Hoechst) staining intensity. Columns, mean; error bars, SD; n=3 independent analyses. (FIG. Z4F) Change in percent cells with 1 micronuclei from baseline (DMSO control) after treatment as in (FIG. Z4A) to (FIG. Z4C). Columns, mean; error bars, SD; […] technical replicates; **** p<0.0001; ns, not significant. Additional validation is presented in FIG. ZS9, A and B. (FIG. Z4G) Short-term viability assay curves for KL-50 (4a) in PD20 cells, deficient in FANCD2 (FANCD2−/−) or complemented with FANCD2 (+FANCD2). (FIG. Z4H) Short-term viability assay curves for KL-50 (4a) in PEO4 (BRCA2+) and PEO1 (BRCA2−/−) cells pre-treated with 0.01% DMSO control or 10 μM O^6BG (+O^6BG) for 1 h prior to KL-50 (4a) addition. (FIG. Z4I) Short-term viability assay curves for KL-50 (4a) in DLD1 BRCA2+/− and BRCA2−/− cells pre-treated with 0.01% DMSO control or 10 μM O^6BG (+O^6BG) for 1 h prior to KL-50 (4a) addition. For (FIG. Z4G), (FIG. Z4H), and (FIG. Z4I), points, mean; error bars, SD; n=3 technical replicates.
Short-term Cell Viability Assay. Cells were seeded in 96-well plates at 1000 or 2000 cells/well and allowed to adhere at 23° C. for 60 min and then incubated overnight at 37° C. […] Cells were imaged on a Cytation 3 imaging reader (BioTek) and quantified using CellProfiler software.

SMILES | duration of survival (in words) [1] | mice observably ill warranting euthanasia ([2]; 200 mg/kg × 1 dose) | weight loss ([2]; 100 or 200 mg/kg × 1 dose, regressed to baseline at the end of one week) | toxicity in the remaining cohorts (in words) ([2]; cohorts below 200 mg/kg × 1 dose) | complete blood counts (in words) ([2]; day 7 after drug administration, all cohorts) | tolerability (in words) ([2]; healthy mice, 0, 25, 50, 100, and 200 mg/kg × 1 dose) | IC50 (LN229 MGMT−/MMR− cells) | sensitivity of FANCD2-deficient cells (in words) [3]
CNC(=O)c1ncn2c(=O)n(CCF)nnc12 [Compound I-1, 3-(2-fluoroethyl)-N-methyl-4-oxo-3H,4H-imidazo[4,3-d][1,2,3,5]tetrazine-8-carboxamide] | longer duration of survival | – | – | – | – | – | – | –
NC(=O)c1ncn2c(=O)n(CCF)nnc12 [KL-50, 3-(2-fluoroethyl)-4-oxo-3H,4H-imidazo[4,3-d][1,2,3,5]tetrazine-8-carboxamide] | – | Two of three mice | greater than 10% | no evidence of toxicity | within normal physiological ranges | well-tolerated | ~20 µM | hypersensitive
